{
  "source": "patent US20220160652A1",
  "about": "“USE OF VITAMIN K IN COMBINATION WITH ANTICOAGULANTS” (KAYDENCE PHARMA AS, priority 2019, published 2022)",
  "tested_on": "VSMCs",
  "assay": "Warfarin-induced oxidative stress in VSMCs, effect of vitamin K2 (DCFDA)",
  "assay_type": "cell-based",
  "conditions": "5 hours incubation",
  "method": "It is known that the level of reactive oxygen species in cells can be measured by measuring the conversion of 2′,7′—dichlorofluorescein diacetate (DCFDA) to the fluorescent dye 2′,7′-dichlorofluorescein (DCF). The fluorescence generated by cells subjected to DCFDA is directly proportional to the amount of oxidized DCFDA to DCF.\nThis study was performed to determine if vitamin K2 (MK-7) reduces warfarin-induced oxidative stress. To perform the study, VSMCs (10,000 cells/well) were plated in a 96-well plate and left to adhere overnight. Next, cells were incubated for 24 hours with 100 μM warfarin. The next day, […] DCFDA was added to the cells for 1 hour. The cells were then incubated for 5 hours with normal medium (baseline), vitamin K2 (MK-7), or warfarin. Fluorescence was measured and fluorescence intensity was normalized for cell count.",
  "note": "“Also recorded” adds a separate entry of the source.",
  "data": [
    {"smiles": "CC(C)=CCC/C(C)=C/CC/C(C)=C/CC/C(C)=C/CC/C(C)=C/CC/C(C)=C/CC/C(C)=C/CC1=C(C)C(=O)c2ccccc2C1=O", "note": "[vitamin K2 (MK-7)]", "values": [
      {"measurement": "warfarin-induced oxidative stress in VSMCs", "setting": "after 24 hours 100 μM warfarin", "result": "counteracted the warfarin-induced oxidative stress; also recorded: counteracts intracellular oxidative stress"},
      {"measurement": "normal oxidative stress in VSMCs", "setting": "normal conditions", "result": "reduced not only normal oxidative stress; also recorded: counteracts intracellular oxidative stress"}
    ]}
  ]
}
